For test [1], the system named is OR7 aptamer (DNA, aptamer) CAAGGAAAATCCTTCAACGAAGTGGG
Nature of the test: transmembrane electrochemical impedance spectroscopy (commercial potentiostat), Langmuir fit. The note with it: 137 mM NaCl, 2.7 mM KCl, 5 mM MgCl2; PBS pH 7.4, 3% DMSO, room temperature; aptamer immobilised on membrane.

Test [2] shares this test system. Nature of the test: transmembrane electrochemical impedance spectroscopy (ADuCM350 impedance reader), Langmuir fit. The note with it: 137 mM NaCl, 2.7 mM KCl, 5 mM MgCl2; PBS pH 7.4, 3% DMSO, room temperature; aptamer immobilised on membrane.
For test [3] the test system is unchanged. Nature of the test: transmembrane electrochemical impedance spectroscopy (potentiostat and impedance reader). The following applies: 137 mM NaCl, 2.7 mM KCl, 5 mM MgCl2; PBS pH 7.4, 3% DMSO, room temperature; aptamer immobilised on membrane; control, highest concentration not given.

In general, KD refers to the constant that tells how readily two partners part at equilibrium. Low readings indicate a tighter complex, high ones a looser complex. Take `CCN(CC)Cc1cc(Nc2ccnc3cc(Cl)ccc23)ccc1O`: the KD in test [1] is 2 nM; in test [2], 4 nM. As for `CCN(CC)CCCC(C)Nc1ccnc2cc(Cl)ccc12` (stereo not drawn), in test [3], the binding entry is recorded as “no”.
